Data on 22 molecules can be found in ChEMBL document CHEMBL4699502, “Discovery of 1-(1H-indazol-4-yl)-3-((1-phenyl-1H-pyrazol-5-yl)methyl) ureas as potent and thermoneutral TRPV1 antagonists” (Bioorg Med Chem Lett, 2020).

Calls of active or inactive are those of the source. The calls are words filed in the database; no cut-off is given here.

System in one data set: not listed separately
The data set is described as follows: Induction of hyperthermia in mouse assessed as effect on body temperature by measuring thermo-neutral activity at 10 mg/kg, po. The format is organism-based. To be noted: in vivo.
For the molecule `Cn1ncc2c(NC(=O)NCc3cc(C(C)(C)C)nn3-c3cccc(Cl)c3)cccc21`, the Activity entry is “Non-Toxic”.

In another data set the target is T1, Transient receptor potential cation channel subfamily V member 1 (Homo sapiens, UniProt Q8NER1). Kind of data set: Agonist activity at human TRPV1 expressed in CHO-K1 cells assessed as induction of Ca2+ response treated with compound 6 mins prior to capsaicin addition and measured after overnight incubation by FLIPR assay. In kind it is cell-based. To be noted: filed as agonist.
T1 sequence (Q8NER1 whole entry): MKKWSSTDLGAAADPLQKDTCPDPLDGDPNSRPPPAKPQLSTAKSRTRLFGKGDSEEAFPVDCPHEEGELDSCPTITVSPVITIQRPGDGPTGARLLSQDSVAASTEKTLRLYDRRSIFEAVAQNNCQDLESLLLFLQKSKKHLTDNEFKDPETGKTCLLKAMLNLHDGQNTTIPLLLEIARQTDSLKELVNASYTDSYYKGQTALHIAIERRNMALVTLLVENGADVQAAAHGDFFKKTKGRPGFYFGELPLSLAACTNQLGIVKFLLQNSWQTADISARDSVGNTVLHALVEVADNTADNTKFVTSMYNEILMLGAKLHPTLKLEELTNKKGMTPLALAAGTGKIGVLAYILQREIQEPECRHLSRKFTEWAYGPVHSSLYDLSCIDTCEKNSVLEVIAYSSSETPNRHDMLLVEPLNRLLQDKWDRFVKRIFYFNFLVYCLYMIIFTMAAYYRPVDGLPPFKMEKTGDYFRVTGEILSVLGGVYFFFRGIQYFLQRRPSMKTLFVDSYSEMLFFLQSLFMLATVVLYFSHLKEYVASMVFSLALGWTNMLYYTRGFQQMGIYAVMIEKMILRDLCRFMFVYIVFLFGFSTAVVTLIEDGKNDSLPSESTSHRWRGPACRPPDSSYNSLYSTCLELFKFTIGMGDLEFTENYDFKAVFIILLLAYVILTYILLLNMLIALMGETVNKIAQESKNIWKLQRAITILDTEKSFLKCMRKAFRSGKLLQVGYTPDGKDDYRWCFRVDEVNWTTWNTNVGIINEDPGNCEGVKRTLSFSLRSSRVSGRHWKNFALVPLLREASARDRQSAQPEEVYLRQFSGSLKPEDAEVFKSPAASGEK
`Cn1cc2c(NC(=O)NCc3cc(C(C)(C)C)nn3-c3cccc(Cl)c3)cccc2n1`: the outcome was Active.
For the molecule `Cn1cc2c(NC(=O)NCc3cc(C(F)(F)F)nn3-c3cccc(Cl)c3)cccc2n1`, the outcome was Active.
Turning to `Cn1ncc2ccc(NC(=O)NCc3cc(C(C)(C)C)nn3-c3cccc(Cl)c3)cc21`, the outcome was Active.
In the case of `CC(C)(C)c1cc(CNC(=O)Nc2ccc3[nH]ncc3c2)n(-c2cccc(Cl)c2)n1`, the outcome was Active.
Still for that read-out and setting: the same measure for `Cn1ncc2cc(NC(=O)NCc3cc(C(C)(C)C)nn3-c3cccc(Cl)c3)ccc21`: “Active”.

The target in the next data set is T1, Transient receptor potential cation channel subfamily V member 1. The data set is described as follows: Antagonist activity at human TRPV1 expressed in CHO-K1 cells assessed as inhibition of capsaicin-induced Ca2+ response treated with compound 6 mins prior to capsaicin addition and measured after overnight incubation by FLIPR assay. The format is cell-based.
Settings: not given
As to `Cn1ncc2c(NC(=O)NCc3cc(C(F)(F)F)nn3-c3ccc(F)c(Cl)c3)cccc21`, the inhibition constant Ki came to 1.9 nM.
For the molecule `Cn1ncc2c(NC(=O)NCc3cc(C(C)(C)C)nn3-c3ccc(Cl)cc3)cccc21`, the Ki came to 9.5 nM.
As to `Cn1ncc2cc(NC(=O)NCc3cc(C(F)(F)F)nn3-c3cccc(Cl)c3)ccc21`, the Ki was determined as 61 nM.
As to `O=C(NCc1cc(C(F)(F)F)nn1-c1ccc(Cl)cc1)Nc1cccc2[nH]ncc12`, the Ki was found to be 2.5 nM.
Consider `Cn1ncc2c(NC(=O)NCc3cc(C(F)(F)F)nn3-c3ccc(Cl)cc3)cccc21`, for which the Ki was 2.7 nM.
In the case of `Cn1ncc2c(NC(=O)NCc3cc(C(F)(F)F)nn3-c3ccc(C(F)(F)F)cc3)cccc21`, the inhibition constant Ki stood at 3.9 nM.
As for `Cn1ncc2c(NC(=O)NCc3cc(C(C)(C)C)nn3-c3cccc(Cl)c3)cccc21`, the Ki worked out at 0.4 nM.
As to `Cn1ncc2c(NC(=O)NCc3cc(C(C)(C)C)nn3-c3ccc(C(F)(F)F)cc3)cccc21`, the Ki was 12.4 nM.
Same read-out and setting: the same measure for `Cn1ncc2c(NC(=O)NCc3cc(C(F)(F)F)nn3-c3cccc(F)c3)cccc21`: 7 nM; for `CC(=O)n1ncc2c(NC(=O)NCc3cc(C(C)(C)C)nn3-c3cccc(Cl)c3)cccc21`: 29.5 nM; for `O=C(NCc1cc(C(F)(F)F)nn1-c1ccc(F)c(Cl)c1)Nc1cccc2[nH]ncc12`: 0.6 nM.
The same measure, in the same setting: the same measure for `COc1ccc(-n2nc(C(C)(C)C)cc2CNC(=O)Nc2cccc3[nH]ncc23)cc1`: 62.9 nM; for `CC(C)(C)c1cc(CNC(=O)Nc2cccc3[nH]ncc23)n(-c2ccc(F)cc2)n1`: 2.2 nM.

The same data set, now with this note: filed as antagonist.
Take `O=C(NCc1cc(C(F)(F)F)nn1-c1cccc(Cl)c1)Nc1ccc2cn[nH]c2c1`: the inhibition result was “Active”.

System in another data set: not listed separately
The data set is described as follows: In vivo antagonist activity at TRPV1 in mouse assessed as inhibition of capsaicin-induced hypothermia at 10 mg/kg, po. The format is functional.
Settings: not given
`Cn1ncc2c(NC(=O)NCc3cc(C(C)(C)C)nn3-c3cccc(Cl)c3)cccc21`: the inhibition in vivo at 10 mg/kg is 14%.

The target of another data set is T1, Transient receptor potential cation channel subfamily V member 1. Kind of data set: Partial agonist activity at human TRPV1 expressed in CHO-K1 cells assessed as induction of Ca2+ response treated with compound 6 mins prior to capsaicin addition and measured after overnight incubation by FLIPR assay. To be noted: filed as partial agonist. The format is cell-based.
As for `Cc1ccc(-n2nc(C(C)(C)C)cc2CNC(=O)Nc2cccc3[nH]ncc23)cc1C`, the outcome was Active.
With `CC(C)(C)c1cc(CNC(=O)Nc2ccc3cn[nH]c3c2)n(-c2cccc(Cl)c2)n1`, the result was Active.
Still for that read-out and setting: the same measure for `Cn1ncc2ccc(NC(=O)NCc3cc(C(F)(F)F)nn3-c3cccc(Cl)c3)cc21`: “Active”.
